What all share (type): functional
Assay [1] deals with Bacillus subtilis. Description: Antibacterial activity against Bacillus subtilis BS01 by CLSI method.
Assay [2] concerns Bacillus thuringiensis. Nature of the assay: Antibacterial activity against Bacillus thuringiensis BT01 by CLSI method.
Assay [3] concerns Staphylococcus aureus. Nature of the assay: Antibacterial activity against methicillin-resistant Staphylococcus aureus isolate shhs-A1 by CLSI method.
Assay [4] has as its system Enterococcus faecalis. Description: Antibacterial activity against Enterococcus faecalis ATCC 29212 by CLSI method.
Assay [5] concerns Staphylococcus aureus. Description: Antibacterial activity against Staphylococcus aureus ATCC 29213 by CLSI method.

Converted amounts (≈) assume the structure as drawn.

As usually defined, the MIC is the lowest concentration that inhibits growth of the organism. Low readings indicate a more susceptible organism, high ones a less susceptible organism. Take `CN[C@H](CC(C)C)C(=O)N[C@H]1C(=O)N[C@@H](CC(N)=O)C(=O)N[C@H]2C(=O)N[C@H]3C(=O)N[C@H](C(=O)N[C@H](C(=O)O)c4cc(O)cc(O)c4-c4cc3ccc4O)[C@H](O)c3ccc(c(Cl)c3)Oc3cc2cc(c3O[C@@H]2O[C@H](CO)[C@@H](O)[C@H](O)[C@H]2O[C@H]2C[C@](C)(N)[C@H](O)[C@H](C)O2)Oc2ccc(cc2Cl)[C@H]1O` [VANCOMYCIN]: the minimum inhibitory concentration (MIC) in assay [1] was found to be 1 mg/L (≈ 0.69 µM); in assay [2] it was 2 mg/L (≈ 1.38 µM).
Consider `C/C1=C\[C@@H]2C=C[C@H](C)C[C@]23OC(=O)C(=C3O)C(=O)[C@@]2(C)[C@H]3[C@H](C=C[C@H]2/C(C)=C/C[C@@H]1O)[C@@H](O)[C@](C)(O)C[C@@H]3C`, for which the MIC in assay [1], in assay [3], in assay [2], in assay [4] and in assay [5] was > 128 mg/L throughout.
On to `COC(=O)N[C@H]1[C@@H](C)O[C@@H](O[C@H]2C/C=C(\C)[C@@H]3C=C[C@@H]4[C@@H](O[C@H]5C[C@@H](O[C@H]6CC[C@@H](O[C@@H]7C[C@@H](O)[C@@H](O[C@H]8CC[C@@H](O)[C@H](C)O8)[C@H](C)O7)[C@H](C)O6)[C@@H](OC(C)=O)[C@H](C)O5)[C@@H](C)C[C@H](C)[C@H]4[C@]3(C)C(=O)C3=C(O)[C@@]4(CC(C=O)=C[C@H](O)[C@H]4/C=C/2C)OC3=O)C[C@]1(C)[N+](=O)[O-]`, for which the minimal inhibitory concentration (MIC) in assay [1] turned out to be 0.03 mg/L (≈ 0.0228 µM); in assay [3], 32 mg/L (≈ 24.4 µM); in assay [2], 0.016 mg/L (≈ 0.0122 µM); in assay [4] it was 64 mg/L (≈ 48.7 µM); in assay [5] it was 32 mg/L (≈ 24.4 µM).
Take `COC(=O)N[C@H]1[C@@H](C)O[C@@H](O[C@H]2C/C=C(\C)[C@@H]3C=C[C@@H]4[C@@H](O[C@H]5C[C@@H](O[C@H]6CC[C@@H](O[C@@H]7C[C@@H](O)[C@@H](O)[C@H](C)O7)[C@H](C)O6)[C@@H](OC(C)=O)[C@H](C)O5)[C@@H](C)C[C@H](C)[C@H]4[C@]3(C)C(=O)C3=C(O)[C@@]4(CC(C=O)=C[C@H](O)[C@H]4/C=C/2C)OC3=O)C[C@]1(C)[N+](=O)[O-]`: the MIC in assay [1] came to 0.063 mg/L (≈ 0.0525 µM); in assay [3], 32 mg/L (≈ 26.7 µM); in assay [2], 0.063 mg/L (≈ 0.0525 µM); in assay [4], 64 mg/L (≈ 53.4 µM); in assay [5] it was 32 mg/L (≈ 26.7 µM).
Turning to `COC(=O)N[C@H]1[C@@H](C)O[C@@H](O[C@H]2C/C=C(\C)[C@@H]3C=C[C@@H]4[C@@H](O[C@H]5C[C@@H](O[C@H]6C[C@@H](O)[C@@H](O[C@@H]7C[C@@H](O)[C@@H](O)[C@H](C)O7)[C@H](C)O6)[C@@H](OC(C)=O)[C@H](C)O5)[C@@H](C)C[C@H](C)[C@H]4[C@]3(C)C(=O)C3=C(O)[C@@]4(CC(/C=C/C(C)=O)=C[C@H](O)[C@H]4/C=C/2C)OC3=O)C[C@]1(C)[N+](=O)[O-]`, the MIC in assay [1] is 0.5 mg/L (≈ 0.398 µM); in assay [3], > 128 mg/L; in assay [2], 0.25 mg/L (≈ 0.199 µM); in assay [4], 128 mg/L (≈ 102 µM); in assay [5] it was > 128 mg/L.
Regarding `COC(=O)N[C@H]1[C@@H](C)O[C@@H](O[C@H]2C/C=C(\C)[C@@H]3C=C[C@@H]4[C@@H](O[C@H]5C[C@@H](O[C@H]6CC[C@@H](O[C@@H]7C[C@@H](O)[C@@H](O[C@H]8CC[C@@H](O)[C@H](C)O8)[C@H](C)O7)[C@H](C)O6)[C@@H](OC(C)=O)[C@H](C)O5)[C@@H](C)C[C@H](C)[C@H]4[C@]3(C)C(=O)C3=C(O)[C@@]4(CC(C=O)=C[C@H](O)[C@H]4/C=C/2C)OC3=O)C[C@]1(C)N`, the MIC is 2 mg/L (≈ 1.56 µM) in assay [1]; > 128 mg/L in assay [3]; 1 mg/L (≈ 0.779 µM) in assay [2]; > 128 mg/L in assay [4]; > 128 mg/L in assay [5].
Consider `COC(=O)N[C@H]1[C@@H](C)O[C@@H](O[C@H]2C/C=C(\C)[C@@H]3C=C[C@@H]4[C@@H](O[C@H]5C[C@@H](O[C@H]6CC[C@@H](O[C@@H]7C[C@@H](O)[C@@H](O)[C@H](C)O7)[C@H](C)O6)[C@@H](OC(C)=O)[C@H](C)O5)[C@@H](C)C[C@H](C)[C@H]4[C@]3(C)C(=O)C3=C(O)[C@@]4(CC(C=O)=C[C@H](O)[C@H]4/C=C/2C)OC3=O)C[C@]1(C)N`, for which the MIC in assay [1] is 2 mg/L (≈ 1.71 µM); in assay [3], > 128 mg/L; in assay [2] it was 1 mg/L (≈ 0.855 µM); in assay [4], > 128 mg/L; in assay [5], > 128 mg/L.
On to `COC(=O)N[C@H]1[C@@H](C)O[C@@H](O[C@H]2C/C=C(\C)[C@@H]3C=C[C@@H]4[C@@H](O[C@H]5C[C@@H](O[C@H]6CC[C@@H](O[C@@H]7C[C@@H](O)[C@@H](O)[C@H](C)O7)[C@H](C)O6)[C@@H](OC(C)=O)[C@H](C)O5)[C@@H](C)C[C@H](C)[C@H]4[C@]3(C)C(=O)C3=C(O)[C@@]4(CC(/C=C/C(C)=O)=C[C@H](O)[C@H]4/C=C/2C)OC3=O)C[C@]1(C)N`, for which the MIC in assay [1] was 2 mg/L (≈ 1.65 µM); in assay [3] it was > 128 mg/L; in assay [2], 1 mg/L (≈ 0.827 µM); in assay [4], > 128 mg/L; in assay [5], 128 mg/L (≈ 106 µM).
For `COC(=O)N[C@H]1[C@@H](C)O[C@@H](O[C@H]2C/C=C(\C)[C@@H]3C=C[C@@H]4[C@@H](O[C@H]5C[C@@H](O[C@H]6C[C@@H](O)[C@@H](O[C@@H]7C[C@@H](O)[C@@H](O)[C@H](C)O7)[C@H](C)O6)[C@@H](OC(C)=O)[C@H](C)O5)[C@@H](C)C[C@H](C)[C@H]4[C@]3(C)C(=O)C3=C(O)[C@@]4(CC(/C=C/C(C)=O)=C[C@H](O)[C@H]4/C=C/2C)OC3=O)C[C@]1(C)N`, the MIC in assay [1] is 8 mg/L (≈ 6.53 µM); in assay [3], > 128 mg/L; in assay [2] it was 4 mg/L (≈ 3.26 µM); in assay [4] it was > 128 mg/L; in assay [5], > 128 mg/L.
As to `COC(=O)N[C@H]1[C@@H](C)O[C@@H](O[C@H]2C/C=C(\C)[C@@H]3C=C[C@@H]4[C@@H](O[C@H]5C[C@@H](O[C@H]6CC[C@@H](O[C@@H]7C[C@@H](O)[C@@H](O[C@H]8CC[C@@H](O)[C@H](C)O8)[C@H](C)O7)[C@H](C)O6)[C@@H](OC(C)=O)[C@H](C)O5)[C@@H](C)C[C@H](C)[C@H]4[C@]3(C)C(=O)C3=C(O)[C@@]4(CC(/C=C/C(C)=O)=C[C@H](O)[C@H]4/C=C/2C)OC3=O)C[C@]1(C)N`, the MIC is 2 mg/L (≈ 1.51 µM) in assay [1]; > 128 mg/L in assay [3]; 1 mg/L (≈ 0.756 µM) in assay [2]; > 128 mg/L in assay [4]; > 128 mg/L in assay [5].
Turning to `C/C1=C\[C@@H]2C=C[C@H](C)C[C@]23OC(=O)C(=C3O)C(=O)[C@@]2(C)[C@H]3[C@H](C=C[C@H]2/C(C)=C/C[C@@H]1O)[C@@H](O)[C@@H](C)C[C@@H]3C`, the MIC in assay [1] came out at 64 mg/L (≈ 122 µM); in assay [3], 128 mg/L (≈ 245 µM); in assay [2] it was 64 mg/L (≈ 122 µM); in assay [4], 128 mg/L (≈ 245 µM); in assay [5] it was 128 mg/L (≈ 245 µM).
`COC(=O)N[C@H]1[C@@H](C)O[C@@H](O[C@H]2C/C=C(\C)[C@@H]3C=C[C@@H]4[C@@H](O[C@H]5C[C@@H](O[C@H]6CC[C@@H](O[C@@H]7C[C@@H](O)[C@@H](O)[C@H](C)O7)[C@H](C)O6)[C@@H](OC(C)=O)[C@H](C)O5)[C@@H](C)C[C@H](C)[C@H]4[C@]3(C)C(=O)C3=C(O)[C@@]4(CC(/C=C/C(C)=O)=C[C@H](O)[C@H]4/C=C/2C)OC3=O)C[C@]1(C)[N+](=O)[O-]`: the MIC in assay [1] was 0.13 mg/L (≈ 0.105 µM); in assay [3], 32 mg/L (≈ 25.8 µM); in assay [2] it was 0.063 mg/L (≈ 0.0508 µM); in assay [4] it was 64 mg/L (≈ 51.6 µM); in assay [5] it was 32 mg/L (≈ 25.8 µM).
For the compound `NC[C@H]1O[C@H](O[C@H]2[C@H](O)[C@@H](O[C@H]3O[C@H](CO)[C@@H](O)[C@H](N)[C@H]3O)[C@H](N)C[C@@H]2N)[C@H](O)[C@@H](O)[C@@H]1O` [KANAMYCIN], the MIC in assay [1] was determined as 8 mg/L (≈ 16.5 µM); in assay [3] it was 64 mg/L (≈ 132 µM); in assay [2], 8 mg/L (≈ 16.5 µM); in assay [4], 32 mg/L (≈ 66 µM); in assay [5] it was 16 mg/L (≈ 33 µM).
With `CC1(C)S[C@@H]2[C@H](NC(=O)[C@H](N)c3ccccc3)C(=O)N2[C@H]1C(=O)O` [AMPICILLIN], the MIC in assay [1] came out at 0.25 mg/L (≈ 0.715 µM); in assay [3], 1 mg/L (≈ 2.86 µM); in assay [2], 32 mg/L (≈ 91.6 µM); in assay [4], 2 mg/L (≈ 5.72 µM); in assay [5], 2 mg/L (≈ 5.72 µM).
In the case of `COC(=O)N[C@H]1[C@@H](C)O[C@@H](O[C@H]2C/C=C(\C)[C@@H]3C=C[C@@H]4[C@@H](O[C@H]5C[C@@H](O[C@H]6CC[C@@H](O[C@@H]7C[C@@H](O)[C@@H](O[C@H]8CC[C@@H](O)[C@H](C)O8)[C@H](C)O7)[C@H](C)O6)[C@@H](OC(C)=O)[C@H](C)O5)[C@@H](C)C[C@H](C)[C@H]4[C@]3(C)C(=O)C3=C(O)[C@@]4(CC(/C=C/C(C)=O)=C[C@H](O)[C@H]4/C=C/2C)OC3=O)C[C@]1(C)[N+](=O)[O-]`, the MIC in assay [1] came out at 0.03 mg/L (≈ 0.0222 µM); in assay [3], 32 mg/L (≈ 23.6 µM); in assay [2], 0.016 mg/L (≈ 0.0118 µM); in assay [4], 64 mg/L (≈ 47.3 µM); in assay [5], 32 mg/L (≈ 23.6 µM).
